Results as given in PMC9646836, “Tetrahydroquinolinone derivatives exert antiproliferative effect on lung cancer cells through apoptosis induction” (Scientific Reports, 2022).

Columns and labels:
Type in all cases: cell-based, human
[1] = tested on: caspase-3/7 in A549 cells; assay: Caspase-3/7 activation (flow cytometry); settings: A549, IC50 concentration
Method: Apoptosis induction via both intrinsic and extrinsic pathways is mediated by caspase cascade events. Therefore, in this study, the ability of 4a to activate two effector caspases (caspase-3 and caspase-7) was evaluated by flow cytometry.
Cells were seeded in a 5-cm^2 dish at a density of 15 × 10^5 cells per dish and allowed to attach overnight at 37 °C. Then, compounds at IC50 concentrations were added to the medium. After 6, 24, and 48 h, the cells were harvested and washed with PBS. Subsequently, the cells were resuspended in the binding buffer and stained with Annexin V Alexa Fluor™ 488 conjugate (#A13201; Thermo Fisher Scientific) for the apoptosis assay and with CellEvent™ Caspase-3/7 Green Flow Cytometry Assay Kit (#C10427; Thermo Fisher Scientific) for the activation of caspase-3/7, as per the manufacturer’s instructions. After incubation, the samples were immediately analyzed using a Guava EasyCyte 8 cell sorter (Merck Millipore) and FlowJo software v10. Each experiment was repeated three times.

[2] = tested on: apoptosis-related proteins in A549 cells; assay: Western blotting of apoptosis-related proteins
Method: The expression of apoptosis-related proteins was determined by Western blotting. Briefly, A549 cells were treated with compound 4a at its IC50 concentration for 6, 24, and 48 h. The cells treated with 1% v/v DMSO served as the negative control. The total protein content was extracted from the cells using the NP-40 cell lysis buffer (10 mM Tris–HCl pH 7.4, 10 mM NaCl, 3 mM MgCl2, 0.5% Nonidet P-40, cOmplete Mini EDTA-free Protease Inhibitor Cocktail). Then, 30 µg of protein extract was separated by 10% sodium dodecyl sulfate–polyacrylamide gel electrophoresis, and the separated proteins were transferred to microporous polyvinylidene difluoride membranes (Bio-Rad). The membranes were blocked with 5% bovine serum albumin in tris-buffered saline-Tween 20 (TBST) buffer (0.2 M Tris-base, 0.137 M NaCl, 0.1% Tween 20) for 1 h at RT, and incubated overnight with primary antibodies at 4 °C. The blots were washed three times with TBST and incubated with appropriate peroxidase-conjugated secondary antibodies for 1 h at RT. Then, the blots were washed in TBST for 30 min and developed using an enhanced chemiluminescence detection reagent kit (Thermo Fisher Scientific) and a ChemiDoc XRS + Imaging System (Bio-Rad). All materials and reagents were obtained from Sigma-Aldrich unless stated otherwise.

[3] = tested on: HCT-116; assay: MTT cell viability assay, HCT-116; settings: mean ± SD, n = 3
Method: (§1) All new tetrahydroquinoline derivatives were assessed for cytotoxicity on a broad panel of cancer and normal cell lines, using the MTT assay. The half-inhibitory growth inhibitory concentration (IC50) values of each compound were calculated after 72 h of treatment and presented in Table 1. […] In this assay, the IC50 value of 5-FU and ETP was recorded as a positive control.
(§2) Non-small cell lung cancer cells A549 (CCL-185), breast cancer cells MCF-7 ([…]), hepatocarcinoma cells HepG2 ([…]), normal kidney cells HEK293 (CRL-1573), and osteosarcoma cells U-2 OS (HTB-96) were obtained from the American Type Culture Collection. HCT-116 cell line was kindly provided by prof. Bert Vogelstein (Johns Hopkins University, Howard Hughes Medical Institute, USA). The obtained A549 and MCF-7 cells were cultured in RPMI-1640 medium, HepG2 cells in Minimum Essential Medium Eagle medium, HEK-293 cells in Dulbecco’s Modified Eagle’s medium, and U-2 OS and HCT-116 cells in McCoy’s […] medium. All culture media were supplemented with 10% fetal bovine serum, 2 mM L-glutamine, and antibiotics (penicillin 62.6 µg/ml and streptomycin 40 µg/ml; Sigma-Aldrich). Both cancer and normal cells were cultured at 37 °C under a humidified atmosphere with 5% or 10% CO2 and routinely screened for Mycoplasma contamination. All materials and reagents were obtained from Corning unless stated otherwise.
(§3) The cytotoxic effect of the synthesized compounds was assessed by the MTT (4,5-dimethylthiazol-2-yl-2,5-diphenyltetrazoliumbromide; Sigma-Aldrich) assay. Briefly, the cells were seeded into 96-well transparent flat-bottom plates and allowed to attach overnight. On the next day, the cells were treated with compounds in the range of 0–50 µM for 72 h. Dimethyl sulfoxide (DMSO; Merck) and 5-fluorouracil (5-FU; Sigma-Aldrich) were used as a reference. After exposure to the compounds, 20 μl of the MTT solution at a concentration of 4 mg/ml was added to each well, and the plates were incubated again for 2–3 h at 37 °C. Next, the media in the wells was replaced with 100 μl DMSO to solubilize the formazan crystals. The absorbance was measured at 540 nm using an ASYS UVM340 microplate reader (Biochrom Ltd.). The IC50 value of the compounds was calculated using GraphPad Prism 9 software, based on the curves plotted with survival as a function of dose, averaged from three independent experiments.

[4] = tested on: HEK293; assay: MTT cell viability assay, HEK293 normal kidney cells
Method: as §1, §2, §3

[5] = A549, IC50 concentration, 6, 24, 48 h

O=c1[nH]c2c(c(-c3ccccc3)c1Cc1cccc3ccccc13)CCCC2 [Compound 4a, 3-(1-naphthylmethyl)-4-phenyl-5,6,7,8-tetrahydro-1H-quinolin-2-one]
activation of caspase-3/7 ([1]; 24 and 48 h, vs vehicle): 3.9 ± 0.33 fold
increase in the activity of caspase-3/7 ([1]; 6 h): 2.32 ± 0.05 fold
PARP-1 band [2, 5]: proteolytic cleavage
caspase-3, caspase-8, and caspase-9 [2, 5]: cleaved into their corresponding catalytically active forms
expression of BAD protein [2, 5]: higher than that in the control group
expression of BAX protein [2, 5]: higher than that in the control group
expression of BCL-2 protein [2, 5]: significantly decreased
expression of BID [2, 5]: slightly activated
expression of AIF ([2]; A549, IC50 concentration, vs DMSO-treated control): remained unchanged
IC50 ([3]; 72 h): 12.2 ± 1.61 µM
IC50 ([3]; Homo sapiens, HCT-116, 72 h): ~13 µM
IC50 ([4]; Homo sapiens, HEK293, MTT, 72 h, normal kidney cells, mean ± SD, n = 3): 49 ± 2.21 µM
suppressive effect on human normal HEK293 kidney cells ([4]; tested concentrations, compared to A549 and HCT-116): almost no suppressive effect
